61 compounds from ChEMBL document CHEMBL4418299, “Compounds useful as csf1 modulators” (2016) can be followed below.

Structures are written as SMILES. A value given as a limit tells only on which side of the number the result lay.

The target in this experiment is Macrophage colony-stimulating factor 1 receptor (Homo sapiens, UniProt P07333). Put plainly: Displacement of kinase tracer 236 from recombinant human His-tagged CSF1R cytoplasmic domain (538 to 910 residues) expressed in baculovirus-infected insect cells measured after 5 hrs by TR-FRET based LanthaScreen assay.
Sequence of Macrophage colony-stimulating factor 1 receptor (P07333 whole entry, the tested form may be a part): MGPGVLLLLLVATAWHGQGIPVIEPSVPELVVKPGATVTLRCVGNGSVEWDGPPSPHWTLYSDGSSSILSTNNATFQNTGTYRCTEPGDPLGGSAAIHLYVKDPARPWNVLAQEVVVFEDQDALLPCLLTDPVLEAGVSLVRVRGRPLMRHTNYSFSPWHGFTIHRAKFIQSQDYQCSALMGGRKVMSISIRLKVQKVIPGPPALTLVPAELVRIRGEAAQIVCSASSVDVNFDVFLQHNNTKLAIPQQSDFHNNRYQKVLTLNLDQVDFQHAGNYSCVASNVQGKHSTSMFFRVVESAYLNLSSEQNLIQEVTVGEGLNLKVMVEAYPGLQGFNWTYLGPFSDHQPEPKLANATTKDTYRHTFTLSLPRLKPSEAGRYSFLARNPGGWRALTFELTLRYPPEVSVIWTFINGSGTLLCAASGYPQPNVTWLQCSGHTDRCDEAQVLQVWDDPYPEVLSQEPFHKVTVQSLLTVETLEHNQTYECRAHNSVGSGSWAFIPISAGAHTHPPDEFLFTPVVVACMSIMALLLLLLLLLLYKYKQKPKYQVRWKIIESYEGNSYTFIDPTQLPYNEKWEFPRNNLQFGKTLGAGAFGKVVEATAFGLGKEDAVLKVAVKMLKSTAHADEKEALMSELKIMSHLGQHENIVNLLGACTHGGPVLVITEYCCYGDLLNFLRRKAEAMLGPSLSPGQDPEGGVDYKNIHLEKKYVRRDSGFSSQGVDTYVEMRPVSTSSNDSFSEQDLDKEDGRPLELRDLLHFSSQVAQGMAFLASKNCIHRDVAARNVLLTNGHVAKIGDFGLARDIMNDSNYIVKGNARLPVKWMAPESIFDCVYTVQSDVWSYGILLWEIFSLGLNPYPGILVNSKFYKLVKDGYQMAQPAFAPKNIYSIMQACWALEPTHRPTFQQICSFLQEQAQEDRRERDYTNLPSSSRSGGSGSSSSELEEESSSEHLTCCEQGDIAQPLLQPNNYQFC

The term IC50 denotes the concentration needed to halve the response being measured. In the case of `Nc1ncnc2c3c(n(-c4ccc(NC(=O)Cc5cnn(-c6ccccc6)c5)cc4)c12)CCC3`, the IC50 lay in the range of 10 to 200 nM.

As for `Nc1ncnc2c3c(n(-c4ccc(NC(=O)C(F)c5ccccc5)cc4)c12)CCC3` (stereo unspecified), the IC50 is over 200 nM.

As for `Cc1ccc(F)c(CC(=O)Nc2ccc(-n3c4c(c5ncnc(N)c53)COC4)cc2F)c1`, the IC50 is over 200 nM.

`COc1cc(-n2c3c(c4ncnc(N)c42)CCC3)ccc1NC(=O)Cc1ccc(C(F)(F)F)nc1`: the IC50 is under 10 nM.

Consider `COc1ccc(CC(=O)Nc2ccc(-n3c4c(c5ncnc(N)c53)CCC4)cc2OC)nc1`, for which the IC50 was 10 to 200 nM.

As for `COc1cc(-n2c3c(c4ncnc(N)c42)COC3)ccc1NC(=O)Cc1cc(C)ccc1F`, the IC50 is 10 to 200 nM.

Take `COc1ccc(CC(=O)Nc2ccc(-n3c4c(c5ncnc(N)c53)COC4)cc2)c(F)c1`: the IC50 lay in the range of 10 to 200 nM.

`Nc1ncnc2c3c(n(-c4ccc(NC(=O)Cc5ccc(Cl)c(C(F)(F)F)c5)cc4)c12)CCC3`: the IC50 turned out to be 14 nM.

Regarding `COc1cc(-n2c3c(c4ncnc(N)c42)COC3)ccc1NC(=O)Cc1ccc(C(F)(F)F)nc1`, the IC50 was 10 to 200 nM.

Consider `Nc1ncnc2c3c(n(-c4ccc(NC(=O)Cc5coc(-c6ccccc6)n5)cc4)c12)CCC3`, for which the IC50 was in the range of 10 to 200 nM.

On to `COc1cc(CC(=O)Nc2ccc(-n3c4c(c5ncnc(N)c53)CCC4)cc2OC)ccc1C`, for which the IC50 is under 10 nM.

Take `Nc1ncnc2c3c(n(-c4ccc(NC(=O)Cc5cc(C(F)(F)F)ccc5Cl)cc4)c12)CCC3`: the IC50 lay within 10 to 200 nM.

`COc1cc(-n2c3c(c4ncnc(N)c42)CCC3)ccc1NC(=O)Cc1ccc(Cl)c(C(F)(F)F)c1`: the IC50 was 10 to 200 nM.

For `COc1cc(-n2c3c(c4ncnc(N)c42)COC3)ccc1NC(=O)Cc1ccccc1`, the IC50 is under 10 nM.

On to `CN1CCN(CC(=O)Nc2ccc(-n3c4c(c5ncnc(N)c53)CCC4)cc2)CC1`, for which the IC50 was over 200 nM.

For `COc1ccccc1CC(=O)Nc1ccc(-n2c3c(c4ncnc(N)c42)CCC3)cc1`, the IC50 is under 10 nM.

As to `COc1cc(-n2c3c(c4ncnc(N)c42)COC3)ccc1NC(=O)Cc1cnc2c(ccn2C)c1`, the IC50 was determined as 32 nM.

As to `COc1ccc(CC(=O)Nc2ccc(-n3c4c(c5ncnc(N)c53)COC4)cc2F)c(F)c1`, the IC50 is over 200 nM.

Turning to `Nc1ncnc2c3c(n(-c4ccc(NC(=O)Cc5ccc(C(F)(F)F)nc5)cc4)c12)COC3`, the IC50 lay in the range of 10 to 200 nM.

As for `Cc1ccc(CC(=O)Nc2ccc(-n3c4c(c5ncnc(N)c53)COC4)cc2)cc1F`, the IC50 lay within 10 to 200 nM.

In the case of `COc1cc(-n2c3c(c4ncnc(N)c42)CCC3)ccc1NC(=O)Cc1ccnc(C(F)(F)F)c1`, the IC50 was under 10 nM.

Regarding `Nc1ncnc2c3c(n(-c4ccc(NC(=O)Cc5ccc(O)cc5)cc4)c12)CCC3`, the IC50 stood at 29 nM.

As to `COc1cc(-n2c3c(c4ncnc(N)c42)CCC3)ccc1NC(=O)Cc1ccccn1`, the IC50 is under 10 nM.

For the compound `Cn1cc(CCC(=O)Nc2ccc(-n3c4c(c5ncnc(N)c53)CCC4)cc2)c2ccccc21`, the IC50 was 10 to 200 nM.

As to `Cn1ccc2cc(CC(=O)Nc3ccc(-n4c5c(c6ncnc(N)c64)CCC5)cc3)cnc21`, the IC50 was under 10 nM.

In the case of `COc1cccc(CC(=O)Nc2ccc(-n3c4c(c5ncnc(N)c53)CCC4)cc2OC)n1`, the IC50 was in the range of 10 to 200 nM.

As to `Nc1ncnc2c3c(n(-c4ccc(NC(=O)CCCN5CCOCC5)cc4)c12)CCC3`, the IC50 was 10 to 200 nM.

In the case of `COc1cc(-n2c3c(c4ncnc(N)c42)COC3)ccc1NC(=O)Cc1cc(C(F)(F)F)ccc1F`, the IC50 lay within 10 to 200 nM.

As for `Nc1ncnc2c3c(n(-c4ccc(NC(=O)Cc5c(F)cc(Cl)cc5F)cc4)c12)CCC3`, the IC50 fell in the range of 10 to 200 nM.

On to `N#Cc1ccc(CC(=O)Nc2ccc(-n3c4c(c5ncnc(N)c53)CCC4)cc2)cc1`, for which the IC50 is under 10 nM.

With `Nc1ncnc2c3c(n(-c4ccc(NC(=O)CC5CCN(C(=O)OCc6ccccc6)CC5)cc4)c12)CCC3`, the IC50 fell in the range of 10 to 200 nM.

In the case of `Nc1ncnc2c3c(n(-c4ccc(NC(=O)Cc5cccnc5)cc4)c12)CCC3`, the IC50 lay within 10 to 200 nM.

As to `COc1cc(-n2c3c(c4ncnc(N)c42)CCC3)ccc1NC(=O)Cc1cc(C(F)(F)F)ccc1F`, the IC50 fell in the range of 10 to 200 nM.

As for `Nc1ncnc2c3c(n(-c4ccc(NC(=O)Cc5ccccc5)c(F)c4)c12)CCC3`, the concentration for half-maximal inhibition (IC50) was over 200 nM.

On to `COc1cc(-n2c3c(c4ncnc(N)c42)CCC3)ccc1NC(=O)Cc1ccccc1`, for which the IC50 was in the range of 10 to 200 nM.

With `COc1cc(-n2c3c(c4ncnc(N)c42)COC3)ccc1NC(=O)Cc1ccnc(C(F)(F)F)c1`, the IC50 worked out at 50 nM.

Regarding `COc1cc(-n2c3c(c4ncnc(N)c42)CCC3)ccc1NC(=O)Cc1ccc2c(ccn2C)c1`, the IC50 was under 10 nM.

On to `Cn1ccc(CC(=O)Nc2ccc(-n3c4c(c5ncnc(N)c53)CCC4)cc2)n1`, for which the half-inhibitory concentration (IC50) is over 200 nM.

For `COc1cc(-n2c3c(c4ncnc(N)c42)CCC3)ccc1NC(=O)Cc1ccc(C)cc1F`, the IC50 is under 10 nM.

On to `Nc1ncnc2c3c(n(-c4ccc(NC(=O)Cc5ccc6c(c5)OCO6)cc4)c12)CCC3`, for which the IC50 fell in the range of 10 to 200 nM.

`COc1ccc(CC(=O)Nc2ccc(-n3c4c(c5ncnc(N)c53)CCC4)cc2OC)cn1`: the IC50 lay in the range of 10 to 200 nM.

Take `COc1ccc(CC(=O)Nc2ccc(-n3c4c(c5ncnc(N)c53)COC4)cc2)cc1F`: the IC50 was determined as 14 nM.

Regarding `Cc1cnc(CC(=O)Nc2ccc(-n3c4c(c5ncnc(N)c53)CCC4)cc2)c(F)c1`, the IC50 fell in the range of 10 to 200 nM.

On to `COc1ccc(CC(=O)Nc2ccc(-n3c4c(c5ncnc(N)c53)CCC4)cc2OC)cc1C`, for which the IC50 is under 10 nM.

As to `COc1cc(-n2c3c(c4ncnc(N)c42)CCC3)ccc1NC(=O)Cc1ccc(C)c(F)c1`, the IC50 was under 10 nM.

Turning to `Nc1ncnc2c3c(n(-c4ccc(NC(=O)Cc5ccccc5)cc4)c12)COC3`, the 50% inhibitory concentration (IC50) is under 10 nM.

With `COc1cc(-n2c3c(c4ncnc(N)c42)CCC3)ccc1NC(=O)Cc1cnc2c(ccn2C)c1`, the IC50 was under 10 nM.

Turning to `COc1cc(-n2c3c(c4ncnc(N)c42)COC3)ccc1NC(=O)Cc1ccc(Cl)c(C(F)(F)F)c1`, the IC50 was under 10 nM.

On to `COc1ccc(CC(=O)Nc2ccc(-n3c4c(c5ncnc(N)c53)COC4)cc2OC)cn1`, for which the IC50 lay within 10 to 200 nM.

Take `COc1cc(-n2c3c(c4ncnc(N)c42)CCC3)ccc1NC(=O)Cc1ncc(C)cc1F`: the IC50 is 10 to 200 nM.

On to `COc1ccc(CC(=O)Nc2ccc(-n3c4c(c5ncnc(N)c53)COC4)cc2OC)cc1F`, for which the IC50 is 10 to 200 nM.

For `Nc1ncnc2c3c(n(-c4ccc(NC(=O)Cc5ccncc5)cc4)c12)CCC3`, the IC50 was over 200 nM.

In the case of `Nc1ncnc2c3c(n(-c4ccc(NC(=O)CN5CCCC5)cc4)c12)CCC3`, the IC50 was over 200 nM.

Consider `CC(=O)N1CCC(CC(=O)Nc2ccc(-n3c4c(c5ncnc(N)c53)CCC4)cc2)CC1`, for which the IC50 was over 200 nM.

On to `Nc1ncnc2c3c(n(-c4ccc(NC(=O)CN5CCOCC5)cc4)c12)CCC3`, for which the IC50 was over 200 nM.

In the case of `Nc1ncnc2c3c(n(-c4ccc(NC(=O)Cn5ccnc5)cc4)c12)CCC3`, the IC50 is over 200 nM.

As to `Nc1ncnc2c3c(n(-c4ccc(NC(=O)CCc5ccccc5)cc4)c12)CCC3`, the IC50 is 10 to 200 nM.

As to `COc1ccc(CC(=O)Nc2ccc(-n3c4c(c5ncnc(N)c53)CCC4)cc2OC)cc1F`, the IC50 was under 10 nM.

`Cn1cc(CC(=O)Nc2ccc(-n3c4c(c5ncnc(N)c53)CCC4)cc2)cn1`: the IC50 lay in the range of 10 to 200 nM.

With `COc1cccc(CC(=O)Nc2ccc(-n3c4c(c5ncnc(N)c53)CCC4)cc2)n1`, the IC50 lay within 10 to 200 nM.

`Cn1cc(C(=O)Nc2ccc(-n3c4c(c5ncnc(N)c53)CCC4)cc2)c2ccccc21`: the IC50 was in the range of 10 to 200 nM.
